Experimental data published in ChEMBL document CHEMBL4265897, “Discovery of benzothiazole amides as potent antimycobacterial agents” (Bioorg Med Chem Lett, 2018).
Values after ≈ are worked out from the molar mass of the structure shown.

Legend:
[1] = tested on: Mycobacteroides abscessus; experiment: Antimycobacterial activity against Mycobacterium massiliense 119 by CLSI method; format: functional, Mycobacterium abscessus subsp. massiliense
[2] = tested on: Mycobacterium intracellulare; experiment: Antimycobacterial activity against Mycobacterium intracellulare 1956 by CLSI method; format: functional
Mycobacterium avium = experiment: Antimycobacterial activity against Mycobacterium avium 101 by CLSI method; format: functional
[3] = tested on: Mycobacteroides abscessus; experiment: Antimycobacterial activity against Mycobacterium abscessus 79 by CLSI method; format: functional
[4] = tested on: Mycolicibacterium fortuitum; experiment: Antimycobacterial activity against Mycobacterium fortuitum 41 by CLSI method; format: functional
[5] = tested on: Mycobacteroides abscessus; experiment: Antimycobacterial activity against Mycobacterium abscessus 1 by CLSI method; format: functional
[6] = tested on: Mycobacteroides abscessus; experiment: Antimycobacterial activity against Mycobacterium abscessus ATCC 19977 by CLSI method; format: functional
[7] = tested on: Mycobacteroides abscessus; experiment: Antimycobacterial activity against Mycobacterium abscessus 21 by CLSI method; format: functional
[8] = tested on: Mycolicibacterium peregrinum; experiment: Antimycobacterial activity against Mycobacterium peregrinum ATCC 700686 by CLSI method; format: functional
Mycobacteroides chelonae = experiment: Antimycobacterial activity against Mycobacterium chelonae 93 by CLSI method; format: functional
[9] = tested on: Mycobacterium tuberculosis; experiment: Antimycobacterial activity against Mycobacterium tuberculosis H37Rv MC2 6206 by CLSI method; format: functional
[10] = tested on: Mycobacteroides abscessus; experiment: Antimycobacterial activity against Mycobacterium abscessus 103 by CLSI method; format: functional

| Structure (SMILES) | MIC [1] | MIC [2] | MIC (Mycobacterium avium) | MIC [3] | MIC [4] | MIC [5] | MIC [6] | MIC [7] | MIC [8] | MIC (Mycobacteroides chelonae) | MIC [9] | MIC [10] |
| --- | --- | --- | --- | --- | --- | --- | --- | --- | --- | --- | --- | --- |
| O=C(Nc1nc2ccc(C(F)(F)F)cc2s1)C1CCCC2(CC2)C1 (configuration not stated) | 2 µg/mL (≈ 5.64 µM) | > 64 µg/mL | > 64 µg/mL | 1 µg/mL (≈ 2.82 µM) | > 64 µg/mL | 8 µg/mL (≈ 22.6 µM) | 4 µg/mL (≈ 11.3 µM) | 2 µg/mL (≈ 5.64 µM) | 1 µg/mL (≈ 2.82 µM) | 1 µg/mL (≈ 2.82 µM) | – | – |
| CC12CCCC(C(=O)Nc3nc4ccc(Cl)cc4s3)(CCC1)C2 | 0.12 µg/mL (≈ 0.344 µM) | 4 µg/mL (≈ 11.5 µM) | 8 µg/mL (≈ 22.9 µM) | 0.12 µg/mL (≈ 0.344 µM) | 0.25 µg/mL (≈ 0.717 µM) | 0.25 µg/mL (≈ 0.717 µM) | – | 0.12 µg/mL (≈ 0.344 µM) | 0.12 µg/mL (≈ 0.344 µM) | 0.25 µg/mL (≈ 0.717 µM) | 0.5 µg/mL (≈ 1.43 µM) | 0.12 µg/mL (≈ 0.344 µM) |
| Cc1cc(C)c2sc(NC(=O)C3CC(C)CC(C)(C)C3)nc2c1 (configuration not stated) | 0.5 µg/mL (≈ 1.51 µM) | > 64 µg/mL | > 64 µg/mL | 0.25 µg/mL (≈ 0.756 µM) | 0.5 µg/mL (≈ 1.51 µM) | 0.5 µg/mL (≈ 1.51 µM) | – | 0.25 µg/mL (≈ 0.756 µM) | 0.25 µg/mL (≈ 0.756 µM) | 0.25 µg/mL (≈ 0.756 µM) | – | 0.25 µg/mL (≈ 0.756 µM) |
| CC1CCC(C(=O)Nc2nc3ccc(C(F)(F)F)cc3s2)CC1 (configuration not stated) | – | > 64 µg/mL | > 64 µg/mL | – | – | – | 64 µg/mL (≈ 187 µM) | – | – | – | – | – |
| CC1CC(C(=O)Nc2nc3cc(F)ccc3s2)CC(C)(C)C1 (configuration not stated) | 2 µg/mL (≈ 6.24 µM) | 16 µg/mL (≈ 49.9 µM) | 16 µg/mL (≈ 49.9 µM) | 2 µg/mL (≈ 6.24 µM) | 2 µg/mL (≈ 6.24 µM) | 2 µg/mL (≈ 6.24 µM) | 1 µg/mL (≈ 3.12 µM) | 0.5 µg/mL (≈ 1.56 µM) | 4 µg/mL (≈ 12.5 µM) | 2 µg/mL (≈ 6.24 µM) | – | – |
| O=C(Nc1nc2ccc(OC(F)(F)F)cc2s1)C1CCCCCC1 | > 64 µg/mL | > 64 µg/mL | > 64 µg/mL | > 64 µg/mL | > 64 µg/mL | > 64 µg/mL | – | > 64 µg/mL | > 64 µg/mL | 32 µg/mL (≈ 89.3 µM) | 64 µg/mL (≈ 179 µM) | > 64 µg/mL |
| CC12CCCC(C(=O)Nc3nc4c(F)c(F)c(F)cc4s3)(CCC1)C2 | 0.12 µg/mL (≈ 0.326 µM) | 8 µg/mL (≈ 21.7 µM) | > 8 µg/mL | 0.12 µg/mL (≈ 0.326 µM) | 0.5 µg/mL (≈ 1.36 µM) | 0.25 µg/mL (≈ 0.679 µM) | – | 0.12 µg/mL (≈ 0.326 µM) | 0.06 µg/mL (≈ 0.163 µM) | 0.12 µg/mL (≈ 0.326 µM) | ≤ 0.12 µg/mL | 0.12 µg/mL (≈ 0.326 µM) |
| CC1CC(C(=O)Nc2nc3c(F)cc(Br)cc3s2)CC(C)(C)C1 (configuration not stated) | 1 µg/mL (≈ 2.5 µM) | 16 µg/mL (≈ 40.1 µM) | > 64 µg/mL | 0.5 µg/mL (≈ 1.25 µM) | 2 µg/mL (≈ 5.01 µM) | 1 µg/mL (≈ 2.5 µM) | – | 0.5 µg/mL (≈ 1.25 µM) | 0.5 µg/mL (≈ 1.25 µM) | 0.25 µg/mL (≈ 0.626 µM) | – | 1 µg/mL (≈ 2.5 µM) |
| CC1(C(=O)Nc2nc3ccc(OC(F)(F)F)cc3s2)CCCCCC1 | 0.12 µg/mL (≈ 0.322 µM) | 4 µg/mL (≈ 10.7 µM) | 8 µg/mL (≈ 21.5 µM) | 0.12 µg/mL (≈ 0.322 µM) | 2 µg/mL (≈ 5.37 µM) | 0.25 µg/mL (≈ 0.671 µM) | – | 0.12 µg/mL (≈ 0.322 µM) | 0.5 µg/mL (≈ 1.34 µM) | 0.25 µg/mL (≈ 0.671 µM) | – | 0.25 µg/mL (≈ 0.671 µM) |
| CC1CC(C(=O)Nc2nc3cc(C(F)(F)F)ccc3s2)CC(C)(C)C1 (configuration not stated) | 0.5 µg/mL (≈ 1.35 µM) | > 64 µg/mL | > 64 µg/mL | 0.25 µg/mL (≈ 0.675 µM) | 0.25 µg/mL (≈ 0.675 µM) | – | – | 0.25 µg/mL (≈ 0.675 µM) | 0.12 µg/mL (≈ 0.324 µM) | 0.25 µg/mL (≈ 0.675 µM) | ≤ 0.12 µg/mL | 0.5 µg/mL (≈ 1.35 µM) |
| CC12CCCC(C(=O)Nc3nc4cc(Br)ccc4s3)(CCC1)C2 | 0.06 µg/mL (≈ 0.153 µM) | 1 µg/mL (≈ 2.54 µM) | 4 µg/mL (≈ 10.2 µM) | 0.06 µg/mL (≈ 0.153 µM) | 0.03 µg/mL (≈ 0.0763 µM) | 0.25 µg/mL (≈ 0.636 µM) | – | 0.06 µg/mL (≈ 0.153 µM) | ≤ 0.07 µg/mL | 0.06 µg/mL (≈ 0.153 µM) | ≤ 0.12 µg/mL | 0.06 µg/mL (≈ 0.153 µM) |
| CC1CC(C(=O)Nc2nc3cc(Cl)cc(Cl)c3s2)CC(C)(C)C1 (configuration not stated) | 0.25 µg/mL (≈ 0.673 µM) | 16 µg/mL (≈ 43.1 µM) | 8 µg/mL (≈ 21.5 µM) | 0.12 µg/mL (≈ 0.323 µM) | 0.25 µg/mL (≈ 0.673 µM) | – | – | 0.25 µg/mL (≈ 0.673 µM) | 0.12 µg/mL (≈ 0.323 µM) | 0.12 µg/mL (≈ 0.323 µM) | 1 µg/mL (≈ 2.69 µM) | 0.5 µg/mL (≈ 1.35 µM) |
| CC12CCCC(C(=O)Nc3nc4ccc(C(F)(F)F)cc4s3)(CCC1)C2 | 0.25 µg/mL (≈ 0.654 µM) | 4 µg/mL (≈ 10.5 µM) | > 8 µg/mL | 0.25 µg/mL (≈ 0.654 µM) | 0.5 µg/mL (≈ 1.31 µM) | 0.5 µg/mL (≈ 1.31 µM) | – | 0.25 µg/mL (≈ 0.654 µM) | 0.12 µg/mL (≈ 0.314 µM) | 0.5 µg/mL (≈ 1.31 µM) | – | 0.12 µg/mL (≈ 0.314 µM) |
| CC1CC(C(=O)Nc2nc3c(F)cccc3s2)CC(C)(C)C1 (configuration not stated) | 1 µg/mL (≈ 3.12 µM) | 8 µg/mL (≈ 25 µM) | 8 µg/mL (≈ 25 µM) | 2 µg/mL (≈ 6.24 µM) | 0.5 µg/mL (≈ 1.56 µM) | 2 µg/mL (≈ 6.24 µM) | – | 1 µg/mL (≈ 3.12 µM) | 2 µg/mL (≈ 6.24 µM) | 2 µg/mL (≈ 6.24 µM) | 4 µg/mL (≈ 12.5 µM) | – |
| CC12CCCC(C(=O)Nc3nc4ccc(Br)cc4s3)(CCC1)C2 | 0.12 µg/mL (≈ 0.305 µM) | 4 µg/mL (≈ 10.2 µM) | 8 µg/mL (≈ 20.3 µM) | 0.12 µg/mL (≈ 0.305 µM) | 0.5 µg/mL (≈ 1.27 µM) | 0.25 µg/mL (≈ 0.636 µM) | – | 0.12 µg/mL (≈ 0.305 µM) | 0.12 µg/mL (≈ 0.305 µM) | 0.25 µg/mL (≈ 0.636 µM) | – | 0.12 µg/mL (≈ 0.305 µM) |
| CC1(C)CCCC(C(=O)Nc2nc3ccc(C(F)(F)F)cc3s2)C1 (configuration not stated) | 0.5 µg/mL (≈ 1.4 µM) | > 64 µg/mL | > 64 µg/mL | 64 µg/mL (≈ 180 µM) | > 64 µg/mL | > 64 µg/mL | – | 64 µg/mL (≈ 180 µM) | 64 µg/mL (≈ 180 µM) | 0.25 µg/mL (≈ 0.701 µM) | – | – |
| CC1CC(C(=O)Nc2nc3cccc(F)c3s2)CC(C)(C)C1 (configuration not stated) | 0.25 µg/mL (≈ 0.78 µM) | 16 µg/mL (≈ 49.9 µM) | 8 µg/mL (≈ 25 µM) | 0.25 µg/mL (≈ 0.78 µM) | 0.12 µg/mL (≈ 0.374 µM) | 0.5 µg/mL (≈ 1.56 µM) | – | 0.25 µg/mL (≈ 0.78 µM) | 0.06 µg/mL (≈ 0.187 µM) | 0.5 µg/mL (≈ 1.56 µM) | 1 µg/mL (≈ 3.12 µM) | 0.5 µg/mL (≈ 1.56 µM) |
